Results from patent US12473289B2, “Heterocyclic compounds as delta-5 desaturase inhibitors and methods of use” (Amgen Inc., priority 2019, dated 2025).
pIC50: −log10 of the molar value.

Target: Delta-5-Desaturase (D5D) (Homo sapiens (Human), UniProt O60427)
Experiment: In vitro measurement of Delta-5-Desaturase inhibitory activity using DGLA-CoA and Arachidonyl-CoA mass spectrometric assays
Assay type: biochemical
Conditions: membrane preparations of D5D-overexpressing HEK293 6E cells; averaged over at least two independent runs
Summary of the method: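 Membranes from D5D-overexpressing HEK293 6E cells (10 μg/mL final) in Tris pH 7.5 with MgCl2, octyl glucoside and TCEP were mixed 1:1 with substrate solution (0.01 mM DGLA, 0.25 mM NADH, 0.25 mM ATP, 0.05 mM CoA) for 1 h at ambient temperature. RapidFire SPE-MS/MS MRM; IC50 by 4-parameter fit, ≥2 runs.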

Delta-5-Desaturase (D5D), sequence (O60427 whole entry, species assumed): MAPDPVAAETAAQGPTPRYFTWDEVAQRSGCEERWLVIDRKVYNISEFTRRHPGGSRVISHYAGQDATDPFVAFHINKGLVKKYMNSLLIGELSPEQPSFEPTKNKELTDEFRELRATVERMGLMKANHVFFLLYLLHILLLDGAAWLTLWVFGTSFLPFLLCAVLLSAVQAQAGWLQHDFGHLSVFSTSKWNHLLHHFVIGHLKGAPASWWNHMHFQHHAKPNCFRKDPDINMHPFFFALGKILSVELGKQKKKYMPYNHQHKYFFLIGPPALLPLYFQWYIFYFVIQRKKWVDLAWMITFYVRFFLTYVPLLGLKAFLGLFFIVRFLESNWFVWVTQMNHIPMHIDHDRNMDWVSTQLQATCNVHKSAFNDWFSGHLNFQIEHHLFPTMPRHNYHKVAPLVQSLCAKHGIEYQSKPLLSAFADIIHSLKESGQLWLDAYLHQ

SMILES	pIC50
COc1ccn2c(=O)c(-c3cn(CCC(F)(F)F)cn3)c(C(F)(F)F)nc2c1 [Example 25, 8-Methoxy-2-(trifluoromethyl)-3-(1-(3,3,3-trifluoropropyl)-1H-imidazol-4-yl)-4H-pyrido[1,2-a]pyrimidin-4-one]	7.18
CN(C)Cc1ccn2c(=O)c(-c3cnn(CC(F)(F)C(F)(F)F)c3)c(C(F)(F)F)nc2c1 [Example 26, 8-((Dimethylamino)methyl)-3-(1-(2,2,3,3,3-pentafluoropropyl)-1H-pyrazol-4-yl)-2-(trifluoromethyl)-4H-pyrido[1,2-a]pyrimidin-4-one]	6.89
CC1(c2ccn3c(=O)c(-c4ccc(OCC(F)(F)F)cc4)c(C(F)(F)F)nc3c2)CCO1 (centres unmarked) [Example 27, 8-(2-Methyl-2-oxetanyl)-3-(4-(2,2,2-trifluoroethoxy)phenyl)-2-(trifluoromethyl)-4H-pyrido[1,2-a]pyrimidin-4-one]	6.26
O=c1c(-c2ccc(OCC(F)(F)F)cc2)c(C(F)(F)F)nc2cc(C3CNC3)ccn12 [Example 28, 8-(3-Azetidinyl)-3-(4-(2,2,2-trifluoroethoxy)phenyl)-2-(trifluoromethyl)-4H-pyrido[1,2-a]pyrimidin-4-one]	5.53
O=c1c(-c2ccc(OCC(F)(F)F)cc2)c(C(F)(F)F)nc2cc(-c3ncco3)ccn12 [Example 29, 8-(1,3-Oxazol-2-yl)-3-(4-(2,2,2-trifluoroethoxy)phenyl)-2-(trifluoromethyl)-4H-pyrido[1,2-a]pyrimidin-4-one]	7.01
C[C@H](O)c1ccn2c(=O)c(-c3ccc(OCC(F)(F)F)cc3)c(C(F)(F)F)nc2c1 [Example 30-1, 8-((1S)-1-hydroxyethyl)-3-(4-(2,2,2-trifluoroethoxy)phenyl)-2-(trifluoromethyl)-4H-pyrido[1,2-a]pyrimidin-4-one]	7.13
C[C@@H](O)c1ccn2c(=O)c(-c3ccc(OCC(F)(F)F)cc3)c(C(F)(F)F)nc2c1 [Example 30-2, 8-((1R)-1-hydroxyethyl)-3-(4-(2,2,2-trifluoroethoxy)phenyl)-2-(trifluoromethyl)-4H-pyrido[1,2-a]pyrimidin-4-one]	6.95
C[C@@H](O)c1ccn2c(=O)c(-c3cnn(CC(F)(F)C(F)(F)F)c3)c(C(F)(F)F)nc2c1 [Example 31-1, 8-((1R)-1-hydroxyethyl)-3-(1-(2,2,3,3,3-pentafluoropropyl)-1H-pyrazol-4-yl)-2-(trifluoromethyl)-4H-pyrido[1,2-a]pyrimidin-4-one]	6.79
C[C@H](O)c1ccn2c(=O)c(-c3cnn(CC(F)(F)C(F)(F)F)c3)c(C(F)(F)F)nc2c1 [Example 31-2, 8-((1S)-1-hydroxyethyl)-3-(1-(2,2,3,3,3-pentafluoropropyl)-1H-pyrazol-4-yl)-2-(trifluoromethyl)-4H-pyrido[1,2-a]pyrimidin-4-one]	6.80
COc1cnn2c(=O)c(-c3cnn(CC(F)(F)C(F)(F)F)c3)c(C(F)(F)F)nc2c1 [Example 34, 8-Methoxy-3-[1-(2,2,3,3,3-pentafluoropropyl)-1H-pyrazol-4-yl]-2-(trifluoromethyl)-4H-pyrimido[1,2-b]pyridazin-4-one]	6.93
COCc1ccn2c(=O)c(-c3cnn(CC(F)(F)C(F)(F)F)c3)c(C(F)(F)F)nc2c1 [Example 36, 8-(Methoxymethyl)-3-[1-(2,2,3,3,3-pentafluoropropyl)-1H-pyrazol-4-yl]-2-(trifluoromethyl)-4H-pyrido[1,2-a]pyrimidin-4-one]	6.79
COc1ccn2c(=O)c(-c3cnc(OCC(F)(F)F)nc3)c(C(F)(F)F)nc2c1 [Example 37, 8-Methoxy-3-[2-(2,2,2-trifluoroethoxy)pyrimidin-5-yl]-2-(trifluoromethyl)-4H-pyrido[1,2-a]pyrimidin-4-one]	7.06
COc1cnn2c(=O)c(-c3cnc(OCC(F)(F)F)nc3)c(C(F)(F)F)nc2c1 [Example 38, 8-Methoxy-3-[2-(2,2,2-trifluoroethoxy)pyrimidin-5-yl]-2-(trifluoromethyl)-4H-pyrimido[1,2-b]pyridazin-4-one]	7.00
COc1ccn2c(=O)c(-c3ccn(CC(F)(F)C(F)(F)F)n3)c(C(F)(F)F)nc2c1 [Example 39-1, 8-Methoxy-3-[1-(2,2,3,3,3-pentafluoropropyl)-1H-pyrazol-3-yl]-2-(trifluoromethyl)-4H-pyrido[1,2-a]pyrimidin-4-one]	7.07
COc1cc2nc(C(F)(F)F)c(-c3cnn(CCC(F)(F)F)c3)c(=O)n2cc1Cl [Example 39-2, 7-chloro-8-methoxy-2-(trifluoromethyl)-3-[1-(3,3,3-trifluoropropyl)-1H-pyrazol-4-yl]-4H-pyrido[1,2-a]pyrimidin-4-one]	6.95
COc1ccn2c(=O)c(-c3cnn(CC(F)(F)C(F)(F)F)c3)c(C(F)(F)F)nc2c1Cl [Example 39-3, 9-chloro-8-methoxy-3-[1-(2,2,3,3,3-pentafluoropropyl)-1H-pyrazol-4-yl]-2-(trifluoromethyl)-4H-pyrido[1,2-a]pyrimidin-4-one]	6.73
COc1ccn2c(=O)c(-c3cnn(CC(F)(F)C(F)(F)F)c3)c(C(F)(F)F)nc2c1F [Example 39-4, 9-fluoro-8-methoxy-3-[1-(2,2,3,3,3-pentafluoropropyl)-1H-pyrazol-4-yl]-2-(trifluoromethyl)-4H-pyrido[1,2-a]pyrimidin-4-one]	7.33
O=c1c(-c2cnn(CC(F)(F)C(F)(F)F)c2)c(C(F)(F)F)nc2ccccn12 [Example 39-5, 3-[1-(2,2,3,3,3-pentafluoropropyl)-1H-pyrazol-4-yl]-2-(trifluoromethyl)-4H-pyrido[1,2-a]pyrimidin-4-one]	8.05
COc1ccc2nc(C(F)(F)F)c(-c3cnn(CC(F)(F)C(F)(F)F)c3)c(=O)n2c1 [Example 39-6, 7-methoxy-3-[1-(2,2,3,3,3-pentafluoropropyl)-1H-pyrazol-4-yl]-2-(trifluoromethyl)-4H-pyrido[1,2-a]pyrimidin-4-one]	6.94
CC(C)(O)c1ccn2c(=O)c(-c3cnn(CC(F)(F)C(F)(F)F)c3)c(C(F)(F)F)nc2c1 [Example 39-7, 8-(2-hydroxypropan-2-yl)-3-[1-(2,2,3,3,3-pentafluoropropyl)-1H-pyrazol-4-yl]-2-(trifluoromethyl)-4H-pyrido[1,2-a]pyrimidin-4-one]	5.84
COc1cc(C)n2c(=O)c(-c3cnn(CC(F)(F)C(F)(F)F)c3)c(C(F)(F)F)nc2c1 [Example 39-8, 8-methoxy-6-methyl-3-[1-(2,2,3,3,3-pentafluoropropyl)-1H-pyrazol-4-yl]-2-(trifluoromethyl)-4H-pyrido[1,2-a]pyrimidin-4-one]	5.87
N#Cc1ccc2nc(C(F)(F)F)c(-c3cnn(CC(F)(F)C(F)(F)F)c3)c(=O)n2c1 [Example 39-9, 4-oxo-3-[1-(2,2,3,3,3-pentafluoropropyl)-1H-pyrazol-4-yl]-2-(trifluoromethyl)-4H-pyrido[1,2-a]pyrimidine-7-carbonitrile]	7.33
COc1cc2nc(C(F)(F)F)c(-c3cnn(CC(F)(F)C(F)(F)F)c3)c(=O)n2cn1 [Example 39-10, 8-methoxy-3-[1-(2,2,3,3,3-pentafluoropropyl)-1H-pyrazol-4-yl]-2-(trifluoromethyl)-4H-[1,3]diazino[1,6-a]pyrimidin-4-one]	8.20
